The text below walks through data of patent US20090192176A1, “1H-PYRAZOLO[3,4-D]PYRIMIDINE, PURINE, 7H-PURIN-8(9H)-ONE, 3H-[1,2,3]TRIAZOLO[4,5-D]PYRIMIDINE, AND THIENO[3,2-D]PYRIMIDINE COMPOUNDS, THEIR USE AS mTOR KINASE AND PI3 KINASE INHIBITORS, AND THEIR SYNTHESES” (Wyeth, priority 2008, published 2009).

Common to all, as to type: biochemical
One assay deals with T1, Human mTOR (Homo sapiens, UniProt P42345).
T1 construct: FLAG
The assay can be described thus: mTOR kinase assay (DELFIA format, purified enzyme). The conditions noted are these: His6-S6K substrate, read-out: TOR Kinase IC50. On the procedure: mTOR Kinase Assay Methods
Human mTOR assays (See Toral-Barza, et al. Biochem Biophys. Res. Commun. 2005 Jun. 24; 332(1):304-10) with purified enzyme are performed in 96-well plates by DELFIA format as follows. Enzymes are first diluted in kinase assay buffer (10 mM HEPES (pH 7.4), 50 mM NaCl, 50 mM β-glycerophosphate, 10 mM MnCl2, 0.5 mM DTT, 0.25 mM microcystin LR, and […]). To each well, 12 μL of the diluted enzyme is mixed briefly with 0.5 μL test inhibitor or control vehicle dimethylsulfoxide (DMSO). The kinase reaction is initiated by adding 12.5 μL kinase assay buffer containing ATP and His6-S6K to give a final reaction volume of 25 μL containing 800 ng/mL FLAG-TOR, […] and […]. The reaction plate is incubated for 2 hours (linear at 1-6 hours) at room temperature with gentle shaking and then terminated by adding 25 μL Stop buffer (20 mM HEPES (pH 7.4), 20 mM EDTA, 20 mM EGTA). The DELFIA detection of the phosphorylated (Thr-389) His6-S6K is performed at room temperature using a monoclonal anti-P(T389)-p70S6K antibody (1A5, Cell Signaling) labeled with Europium-N1-ITC (Eu) (10.4 Eu per antibody, PerkinElmer). The DELFIA Assay buffer and Enhancement solution can be purchased from PerkinElmer. 45 μL of the terminated kinase reaction mixture is transferred to a MaxiSorp plate (Nunc) containing 55 μL PBS. The His6-S6K is allowed to attach for 2 hours after which the wells are aspirated and washed once with PBS. 100 μL of DELFIA Assay buffer with 40 ng/mL Eu-P(T389)-S6K antibody is added. The antibody binding is continued for 1 hour with gentle agitation. The wells are then aspirated and washed 4 times with PBS containing 0.05% Tween-20 (PBST). 100 μL of DELFIA Enhancement solution is added to each well and the plates are read in a PerkinElmer Victor model plate reader. Data obtained is used to calculate enzymatic activity and enzyme inhibition by potential inhibitors.

In another assay the target is PI3 Kinase α (Homo sapiens, UniProt P42336). The assay can be described thus: Fluorescence polarization assay for PI3K. On the procedure: (§1) Fluorescence Polarization Assay for PI3K
PI3 Kinase α, sequence (P42336 whole entry): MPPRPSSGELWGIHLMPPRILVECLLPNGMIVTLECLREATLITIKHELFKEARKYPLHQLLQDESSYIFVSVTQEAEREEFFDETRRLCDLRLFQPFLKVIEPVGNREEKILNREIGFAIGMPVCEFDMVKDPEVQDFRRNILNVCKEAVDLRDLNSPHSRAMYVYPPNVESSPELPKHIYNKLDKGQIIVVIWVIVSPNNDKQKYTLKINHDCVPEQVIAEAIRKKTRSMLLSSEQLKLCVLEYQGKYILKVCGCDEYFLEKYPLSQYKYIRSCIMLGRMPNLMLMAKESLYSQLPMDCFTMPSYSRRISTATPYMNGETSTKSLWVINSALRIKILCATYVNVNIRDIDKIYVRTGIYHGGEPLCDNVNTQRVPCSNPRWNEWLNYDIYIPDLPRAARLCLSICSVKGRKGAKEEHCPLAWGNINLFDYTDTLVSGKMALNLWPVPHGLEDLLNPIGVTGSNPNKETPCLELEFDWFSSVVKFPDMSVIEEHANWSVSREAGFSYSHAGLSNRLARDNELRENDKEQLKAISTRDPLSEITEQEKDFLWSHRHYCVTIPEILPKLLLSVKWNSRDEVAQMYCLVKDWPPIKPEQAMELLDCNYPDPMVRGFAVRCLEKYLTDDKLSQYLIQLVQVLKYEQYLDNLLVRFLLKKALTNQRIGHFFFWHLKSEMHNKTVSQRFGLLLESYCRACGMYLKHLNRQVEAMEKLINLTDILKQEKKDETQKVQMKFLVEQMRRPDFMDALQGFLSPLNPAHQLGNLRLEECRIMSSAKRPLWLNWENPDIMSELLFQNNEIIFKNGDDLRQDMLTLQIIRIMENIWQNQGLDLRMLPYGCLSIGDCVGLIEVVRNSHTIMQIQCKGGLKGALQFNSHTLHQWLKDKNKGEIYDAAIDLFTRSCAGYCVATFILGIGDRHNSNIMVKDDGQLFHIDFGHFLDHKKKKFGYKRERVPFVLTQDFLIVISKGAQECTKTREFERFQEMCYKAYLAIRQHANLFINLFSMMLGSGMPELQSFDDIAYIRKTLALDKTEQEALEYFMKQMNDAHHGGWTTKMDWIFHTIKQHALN
PI3 Kinase α, sequence (P27986 whole entry partner): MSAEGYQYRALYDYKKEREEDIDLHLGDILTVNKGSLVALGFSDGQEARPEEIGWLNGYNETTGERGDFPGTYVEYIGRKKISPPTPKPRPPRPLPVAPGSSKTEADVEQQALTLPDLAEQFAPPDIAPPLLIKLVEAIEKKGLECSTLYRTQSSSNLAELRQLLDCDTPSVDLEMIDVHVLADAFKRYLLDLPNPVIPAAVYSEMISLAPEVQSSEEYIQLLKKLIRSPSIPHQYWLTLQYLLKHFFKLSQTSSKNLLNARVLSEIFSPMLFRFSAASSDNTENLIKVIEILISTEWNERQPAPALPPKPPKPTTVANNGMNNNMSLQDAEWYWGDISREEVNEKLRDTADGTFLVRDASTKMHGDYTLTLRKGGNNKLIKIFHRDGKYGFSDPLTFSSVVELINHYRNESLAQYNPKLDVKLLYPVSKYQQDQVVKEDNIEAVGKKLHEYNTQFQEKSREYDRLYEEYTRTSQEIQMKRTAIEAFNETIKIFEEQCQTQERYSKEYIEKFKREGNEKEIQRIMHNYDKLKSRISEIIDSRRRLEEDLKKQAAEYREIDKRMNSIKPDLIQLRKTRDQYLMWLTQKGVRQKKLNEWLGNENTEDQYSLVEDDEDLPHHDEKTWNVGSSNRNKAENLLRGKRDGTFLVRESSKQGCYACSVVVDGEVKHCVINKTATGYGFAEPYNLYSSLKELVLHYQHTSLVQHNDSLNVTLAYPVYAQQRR
(§2) This assay is used to determine the IC50 of compounds of the present invention as it identifies inhibitors of PI3 kinase by measuring inhibition.
(§3) Reaction Buffer: 20 mM HEPES, pH 7.5, 2 mM MgCl2, 0.05% CHAPS; and 0.01% BME (added fresh) Stop/Detection Buffer: 100 mM HEPES, pH 7.5, 4 mM EDTA, 0.05% CHAPS; ATP 20 mM in water; PIP2 (diC8, cat# P-4508) 1 mM in water (MW=856.5); GST-GRP 1.75 mg/mL or 1.4 mg/mL in 10% glycerol; Red detector (TAMRA) 2.5 μM; Plate: Nunc 384 well black polypropylene fluorescence plate.
(§4) The assay is run by placing 5 μL of diluted enzyme per well, then 5 μL of diluted compound (or 9.5 μL enzyme then 0.5 μL compound in DMSO) is added and mixed. Then, 10 μL substrate is added to start the reaction. The samples are incubated 30-60 minutes, then the reaction is stopped by adding 20 μL stop/detector mix. PI3K is diluted with reaction buffer (e.g., 5 μL or 7.5 μL PI3K into 620 μL reaction buffer), and 5 μL of diluted enzyme is used per well. 5 μL reaction buffer or drug diluted in buffer (e.g., 4 μL/100 so final DMSO is 1% in reaction) is added to each. Pipetting up and down mixes the samples. Alternatively, the enzyme can be diluted to 1215 μL. In this case 9.8 μL is added per well and 0.2 μL compound is added in DMSO. To prepare 1 mL of substrate solution, 955 μL reaction buffer, 40 μL PIP2, and 2.5 μL ATP are mixed. 10 μL of substrate is added to each well to start the reaction.
(§5) Stop/detector mix is prepared by mixing 4 μL Red detector and 1.6 μL or 2.0 μL GST-GRP with 1 mL Stop buffer, which results in 10 nM probe and 70 nM GST-GRP). 20 μL of the stop/detector mix is added to each well to stop the reaction. The plates are read after 30-90 minutes keeping the red probe solutions dark. For the zero time point, stop/detector mix is added to the enzyme just before adding substrate. For an extra control, stop/detector mix is added to buffer (no enzyme) and substrate or to just buffer (no substrate). […] The recommended reaction has 0.06 μL per 20 μL (0.015 μg/20 μL) or 0.01125 μg/15 μL or 0.75 μg/mL. Plates are read on machines with filters for Tamra. The units are mP with no enzyme controls reading app 190-220 mP units. Fully active enzyme reduces fluorescence polarization down to 70-100 mP after 30 minutes. An active compound raises the mP values halfway to control or to 120-150 mP units.
On the technique in general: Fluorescence polarisation rises when a labelled molecule tumbles more slowly, as on binding a larger partner.

A further assay concerns the target PI3 Kinase γ (Homo sapiens, UniProt P48736). As to the kind of experiment: Fluorescence polarization assay for PI3K. On the procedure:
as §1, §2, §3, §4, §5

PI3 Kinase γ, sequence (P48736 whole entry): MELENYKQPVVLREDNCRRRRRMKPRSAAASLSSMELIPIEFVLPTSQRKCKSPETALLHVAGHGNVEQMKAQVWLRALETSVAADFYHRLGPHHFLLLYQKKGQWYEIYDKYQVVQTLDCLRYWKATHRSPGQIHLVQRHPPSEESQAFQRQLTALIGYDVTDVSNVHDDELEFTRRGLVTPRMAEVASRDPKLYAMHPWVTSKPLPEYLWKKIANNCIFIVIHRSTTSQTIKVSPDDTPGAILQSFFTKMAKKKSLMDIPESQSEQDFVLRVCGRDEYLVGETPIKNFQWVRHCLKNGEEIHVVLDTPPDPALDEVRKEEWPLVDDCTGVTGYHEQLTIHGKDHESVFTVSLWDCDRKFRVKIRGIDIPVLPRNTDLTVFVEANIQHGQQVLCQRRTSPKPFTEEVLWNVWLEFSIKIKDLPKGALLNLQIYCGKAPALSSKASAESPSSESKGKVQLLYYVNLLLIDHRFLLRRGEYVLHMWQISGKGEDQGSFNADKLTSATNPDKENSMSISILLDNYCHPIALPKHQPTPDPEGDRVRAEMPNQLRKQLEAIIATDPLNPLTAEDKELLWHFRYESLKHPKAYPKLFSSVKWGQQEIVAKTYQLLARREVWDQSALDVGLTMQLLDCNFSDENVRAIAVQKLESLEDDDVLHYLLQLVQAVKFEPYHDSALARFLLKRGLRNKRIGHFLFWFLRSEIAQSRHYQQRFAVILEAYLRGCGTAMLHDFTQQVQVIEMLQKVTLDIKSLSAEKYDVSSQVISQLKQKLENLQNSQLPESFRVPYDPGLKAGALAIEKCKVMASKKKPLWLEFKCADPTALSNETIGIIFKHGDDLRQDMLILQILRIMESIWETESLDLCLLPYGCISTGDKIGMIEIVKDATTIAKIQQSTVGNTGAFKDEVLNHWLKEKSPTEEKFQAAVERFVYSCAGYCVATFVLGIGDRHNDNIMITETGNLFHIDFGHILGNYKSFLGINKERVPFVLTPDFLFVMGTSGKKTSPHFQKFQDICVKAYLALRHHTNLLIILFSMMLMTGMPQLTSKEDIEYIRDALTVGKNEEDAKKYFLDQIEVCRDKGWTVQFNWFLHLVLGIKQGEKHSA

As usually defined, the IC50 is the point on the concentration scale where inhibition reaches its midpoint. `OCc1cccc(-c2nc(C3=CCOCC3)c3ncn(C4CCN(Cc5ccc(F)nc5)CC4)c3n2)c1` [Compound 22, {3-[6-(3,6-dihydro-2H-pyran-4-yl)-9-{1-[(6-fluoropyridin-3-yl)methyl]piperidin-4-yl}-9H-purin-2-yl]phenyl}methanol]: the figures for the IC50 on Human mTOR, at PI3 Kinase α and against PI3 Kinase γ were 1900 nM, 1050 nM and 5400 nM, respectively.

Consider `OCc1cccc(-c2nc(C3=CCOCC3)c3ncn(C4CCN(Cc5ccccn5)CC4)c3n2)c1` [Compound 24, (3-{6-(3,6-dihydro-2H-pyran-4-yl)-9-[1-(pyridin-2-ylmethyl)piperidin-4-yl]-9H-purin-2-yl}phenyl)methanol], for which the half-inhibitory concentration (IC50) on Human mTOR came to 1700 nM; against PI3 Kinase α, 1690 nM; on PI3 Kinase γ, 7620 nM.

Turning to `O=C(Nc1ccc(-c2nc(C3=CCOCC3)c3ncn(C4CCN(Cc5ccc[nH]5)CC4)c3n2)cc1)NC1CCN(C(=O)OCc2ccccc2)CC1` [Compound 27, benzyl 4-{[(4-{6-(3,6-dihydro-2H-pyran-4-yl)-9-[1-(1H-pyrrol-2-ylmethyl)piperidin-4-yl]-9H-purin-2-yl}phenyl)carbamoyl]amino}piperidine-1-carboxylate], the IC50 is more than 4000 nM on Human mTOR, 3030 nM against PI3 Kinase α and 1080 nM on PI3 Kinase γ.

As to `CNC(=O)Nc1ccc(-c2nc(C3=CCOCC3)c3ncn(C4CCN(Cc5ccc[nH]5)CC4)c3n2)cc1` [Compound 41, 1-(4-{6-(3,6-dihydro-2H-pyran-4-yl)-9-[1-(1H-pyrrol-2-ylmethyl)piperidin-4-yl]-9H-purin-2-yl}phenyl)-3-methylurea], the IC50 at Human mTOR turned out to be 130 nM; against PI3 Kinase α, 543 nM; on PI3 Kinase γ it was 3110 nM.

Take `Oc1cncc(-c2nc(C3=CCOCC3)c3ncn(C4CCN(Cc5ccccc5)CC4)c3n2)c1` [Compound 28, 5-[9-(1-benzylpiperidin-4-yl)-6-(3,6-dihydro-2H-pyran-4-yl)-9H-purin-2-yl]pyridin-3-ol]: the IC50 is 3600 nM on Human mTOR, 384 nM against PI3 Kinase α and 2400 nM against PI3 Kinase γ.

As to `Oc1cccc(-c2nc(C3=CCOCC3)c3ncn(C4CCN(Cc5ccc(Br)nc5)CC4)c3n2)c1` [Compound 19, 3-[9-{1-[(6-bromopyridin-3-yl)methyl]piperidin-4-yl}-6-(3,6-dihydro-2H-pyran-4-yl)-9H-purin-2-yl]phenol], the IC50 on Human mTOR was 690 nM; at PI3 Kinase α, 5000 nM; against PI3 Kinase γ, more than 10000 nM.

For the compound `Oc1cncc(-c2nc(C3=CCOCC3)c3ncn(C4CCN(Cc5ccc(Cl)nc5)CC4)c3n2)c1` [Compound 37, 5-[9-{1-[(6-chloropyridin-3-yl)methyl]piperidin-4-yl}-6-(3,6-dihydro-2H-pyran-4-yl)-9H-purin-2-yl]pyridin-3-ol], the results for the half-inhibitory concentration (IC50) at Human mTOR, against PI3 Kinase α and on PI3 Kinase γ were 1600 nM, 437 nM and 719 nM, respectively.

Turning to `OCc1cccc(-c2nc(C3=CCOCC3)c3ncn(C4CCNCC4)c3n2)c1` [Compound 43, {3-[6-(3,6-dihydro-2H-pyran-4-yl)-9-piperidin-4-yl-9H-purin-2-yl]phenyl}methanol], the IC50 on Human mTOR was more than 4000 nM; on PI3 Kinase α, 574 nM; on PI3 Kinase γ it was 2060 nM.

As to `OCc1cccc(-c2nc(C3=CCOCC3)c3ncn(C4CCN(Cc5cccnc5)CC4)c3n2)c1` [Compound 23, (3-{6-(3,6-dihydro-2H-pyran-4-yl)-9-[1-(pyridin-3-ylmethyl)piperidin-4-yl]-9H-purin-2-yl}phenyl)methanol], the IC50 is 3800 nM on Human mTOR, 1490 nM at PI3 Kinase α and 7370 nM on PI3 Kinase γ.

Regarding `Oc1cccc(-c2nc(C3=CCOCC3)c3ncn(C4CCN(Cc5ccccc5)CC4)c3n2)c1` [Compound 12, 3-[9-(1-benzylpiperidin-4-yl)-6-(3,6-dihydro-2H-pyran-4-yl)-9H-purin-2-yl]phenol], the IC50 on Human mTOR amounted to 1800 nM; against PI3 Kinase α, 1770 nM; against PI3 Kinase γ, 5000 nM.

For `O=c1[nH]c2nc(-c3cccc(CO)c3)nc(C3=CCOCC3)c2[nH]1` [Compound 39, 6-(3,6-dihydro-2H-pyran-4-yl)-2-[3-(hydroxymethyl)phenyl]-7,9-dihydro-8H-purin-8-one], the IC50 came to 1300 nM at Human mTOR, 524 nM against PI3 Kinase α and 819 nM against PI3 Kinase γ.

As for `Oc1cncc(-c2nc(C3=CCOCC3)c3ncn(C4CCN(Cc5ccc(Br)nc5)CC4)c3n2)c1` [Compound 30, 5-[9-{1-[(6-bromopyridin-3-yl)methyl]piperidin-4-yl}-6-(3,6-dihydro-2H-pyran-4-yl)-9H-purin-2-yl]pyridin-3-ol], the 50% inhibitory concentration (IC50) worked out at 2000 nM on Human mTOR, 275 nM against PI3 Kinase α and 2470 nM against PI3 Kinase γ.

Take `Oc1cncc(-c2nc(C3=CCOCC3)c3nn[nH]c3n2)c1` [Compound 50, 5-[7-(3,6-dihydro-2H-pyran-4-yl)-3H-[1,2,3]triazolo[4,5-d]pyrimidin-5-yl]pyridin-3-ol]: the results for the half-inhibitory concentration (IC50) on Human mTOR, at PI3 Kinase α and against PI3 Kinase γ were 360 nM, 78 nM and 100 nM, respectively.

For `Oc1cncc(-c2nc(C3=CCOCC3)c3ncn(C4CCNCC4)c3n2)c1` [Compound 44, 5-[6-(3,6-dihydro-2H-pyran-4-yl)-9-piperidin-4-yl-9H-purin-2-yl]pyridin-3-ol], the IC50 at Human mTOR came to 4800 nM; against PI3 Kinase α, 628 nM; against PI3 Kinase γ, 2630 nM.

In the case of `O=C(Nc1ccc(-c2nc(C3=CCOCC3)c3ncn(C4CCNCC4)c3n2)cc1)NC1CCNCC1` [Compound 26, 1-{4-[6-(3,6-dihydro-2H-pyran-4-yl)-9-piperidin-4-yl-9H-purin-2-yl]phenyl}-3-piperidin-4-ylurea], the figures for the IC50 at Human mTOR, at PI3 Kinase α and at PI3 Kinase γ were more than 4000 nM, 2670 nM and 7000 nM, respectively.

With `O=c1[nH]c2nc(-c3cccc(O)c3)nc(C3=CCOCC3)c2[nH]1` [Compound 38, 6-(3,6-dihydro-2H-pyran-4-yl)-2-(3-hydroxyphenyl)-7,9-dihydro-8H-purin-8-one], the IC50 at Human mTOR amounted to 190 nM; against PI3 Kinase α, 152 nM; against PI3 Kinase γ, 543 nM.

As to “7,9-dibenzyl-6-(3,6-dihydro-2H-pyran-4-yl)-2-(3-hydroxyphenyl)-7,9-dihydro-8H-purin-8-one [Compound 66]”, the IC50 was found to be 14000 nM at Human mTOR, 2420 nM against PI3 Kinase α and 1610 nM at PI3 Kinase γ.

“5-[9-{1-[(5-bromopyridin-3-yl)methyl]piperidin-4-yl}-6-(3,6-dihydro-2H-pyran-4-yl)-9H-purin-2-yl]pyridin-3-ol [Compound 35]”: the IC50 was found to be 9800 nM at Human mTOR, 1340 nM against PI3 Kinase α and 6740 nM against PI3 Kinase γ.
